Experimental data from US20120141432A1, “USE OF CATALYTIC ANTIOXIDANT TO PRESERVE STEM CELL PHENOTYPE AND CONTROL CELL DIFFERENTIATION” (University of Pittsburgh- Of the Commonwealth System of …, priority 2010, published 2012).
“Also recorded” adds a separate entry of the source.

Columns and labels:
Format in all cases: cell-based
[1] = system: muscle stem cells; assay: Myogenic differentiation of muscle stem cells (% of nuclei within myosin positive myotubes)
Method: (§1) FIGS. 2A and 2B are a set of bar graphs showing the effect of the catalytic antioxidant FBC-007 on the differentiation of muscle stem cells. The effect of FBC-007 at a concentration of 34 μM was measured on the myogenic differentiation of muscle stem cells. Differentiation was determined as the % of nuclei located within myosin positive myotubes and multinucleated myotubes.
In vitro Myogenic Differentiation: Cell populations from 3 different time points (<5 PDs, midpoint PDs, and maximal expansion) are evaluated. Briefly cells are plated at high density of 2000 cells/cm^2 in a low serum medium. After 3-4 days in culture, the media is changed to low serum or 2% serum medium. After day 7, immunocytochemical staining is performed to reveal fast myosin heavy chain (MyHC) expression. Methanol-fixed cultures are blocked with 5% HS and incubated with monoclonal mouse anti-MyHC (Sigma, 1:250, Sigma), biotinylated IgG (1:250, Vector), and streptavidin-Cy3 (1:500). […] In vitro differentiation efficiency is calculated as the ratio of myogenic nuclei to total nuclei.

[2] = system: stem cells; assay: Rescue from hydrogen peroxide-induced cell death
From the text: In other words, contacting stem cells with catalytic antioxidants allows the stem cells to proliferate (e.g. increase their numbers) without differentiating and losing the characteristics of stem cells, such as the phenotypic characteristics that distinguish stem cells from other cells. […] Thus, as disclosed herein contacting stem cells with catalytic antioxidants permits in vitro expansion of stem cells while delaying or inhibiting the differentiation of the stem cells, as well as protecting the stem cells from oxidative stress induced cell death.

[3] = system: muscle stem cells; assay: Division time, cell growth and proliferation of muscle stem cells
Method: as §1
In Vitro Live Cell Imaging (LCI) to study Quiescent Nondividing cells. In vitro LCI is used to measure the fraction or proportion which is quiescent and nondividing after cytokine stimulation. The LCI system is unique in providing time-lapse images to characterize the cell populations. Using CytoTracker, DataCollector, and informatics tools, the growth rates of the populations are determined as described previously (Deasy et al., Stem Cells 20, 50-60 (2002)). In this way subpopulations or individual cells can be quantified. The combined the cell growth counts and the data of cell division time is used to calculate the size of the non-dividing fraction via a non-exponential Sherley equation (Sherley et al., Cell Prolif. 28, 137-44 (1995)).

[4] = system: human umbilical cord mesenchymal stem cells; assay: Osteogenic differentiation of umbilical cord mesenchymal stem cells (ALP staining); conditions: 34 μM, BMP4 0, 0.1 or 10 ng/mL, vs control with no antioxidant, FIG. 3
Method: The cells were contacted with the catalytic antioxidant at a concentration of 34 μM and bone morphogenic protein (BMP4) at concentrations of 0, 0.1, or 10 ng/mL.
Umbilical cord mesenchymal stem cells (UC-MSCs) were isolated and cultured. Cells were plated in the presence and absence of catalytic antioxidant. Live cell time-lapsed imaging was used to examine proliferation and apoptosis; images were analyzed using custom software obtained from Kairos Instruments. Osteogenic differentiation was stimulated using previously described methods; Alkaline Phosphatase (ALP) staining was used to determine stem cell differentiation (see Schugar et al., J Biomed Biotechnol 2009, 789526 (2009)). Cell phenotype was examined by flow cytometry (Schugar et al., J Biomed Biotechnol 2009, 789526 (2009)). Levels of intracellular reactive oxygen species were examined using dihydroxyrhodamine 123.

[5] = system: human skMSC; assay: Growth factor dose response of human skMSC by time-lapsed imaging; conditions: for number of muscle stem cells: after 3 days in 100 ng/mL, vs lower doses and unstimulated controls; for response of human skMSC to growth factor: time-lapsed imaging
[6] = system: muscle stem cells; assay: ROS in muscle stem cells grown with FGF-2; conditions: cells grown with FGF-2 vs absence of FGF-2, FIG. 5C
From the text: FIGS. 5A-5D are bar graphs, a plot and an electronic image showing that oxidative stress decreases cell viability (FIG. 5A) and myogenic differentiation capacity (FIG. 5B). […] FIG. 5D is an electronic image of muscle cells showing that myosin (staining) declines as ROS increases.

[7] = system: human skMSC; assay: BrdU pulse detection of nondividing cells; conditions: 3 days exposure, BrdU pulse 36 hours, P=0.01
Method: Nondividing cells were also detected within the human muscle cell population in the context of GF-dose-dependent studies. […] The cells were pulsed with BrdU for 36 hours (division time=19±4 hrs) immunostaining was performed to detect labeled and unlabeled cells.

[8] = system: muscle stem cells; assay: Growth rate of muscle cells after CFSE labeling; conditions: 0 μM, 1 μM or 5 μM CFSE, FIG. 7B
Method: Cells were stained at 1.0 μM, and then analyzed at 0, 2, and 5 days. Note that the low fluorescence intensity approaches that of unstained cells by day 5. FIG. 7D is a plot of sample lineage trees showing the presence of dividing and non-dividing cells. FIG. 7E is a set of plots showing that 24 hours after injection into mdx mice, CFSE-labeled cells are detectable.
Both time-lapsed imaging and FACS sorting were applied to the quiescent population using used cytoplasmic tracking dyes, used 5-6-carboxyfluorescein diacetate, succinimdyl ester, CFSE, and a similar molecule, CMFDA. Once cell permeable CFDA-SE is taken up by cells, intracellular esterases in the cytoplasm cleave acetate groups and convert CFDA to fluorescent CFSE. It was first confirmed that CFSE is impermeable; it was not taken in by unlabeled neighboring cells when CFSE-positive cells die (FIG. 7A). An approach was developed to use CFSE as an effective method for labeling of muscle cells.

[9] = stem cell cultures, muscle stem cell and mesenchymal stem cells

For `CC[n+]1ccccc1-c1c2nc(c(-c3cccc[n+]3CC)c3ccc([n-]3)c(-c3cccc[n+]3CC)c3nc(c(-c4cccc[n+]4CC)c4ccc1[n-]4)C=C3)C=C2.[Mn+3]` [FBC-007, Mn(III)tetrakis(N-ethylpyridinium-2-yl)porphyrin], the “myogenic differentiation (% of nuclei located within myosin positive myotubes and multinucleated myotubes)” value ([1]; FBC-007 34 μM vs controls without antioxidant, FIG. 2A) was “reduced levels of differentiation relative to controls”, the uninduced myogenic differentiation ([1]; absence of growth factor (GF) stimulation, FIG. 6C) was “prevents uninduced myogenic differentiation” and the “myogenic differentiation in stem cell cultures” value [1, 9] was “inhibits the myogenic differentiation”. The “hydrogen peroxide-induced cell death” value [2] was “can rescue the stem cells”, the “division time of the muscle stem cells” value ([3]; FBC-007 34 μM, FIG. 2B) was “does not show a statistically significant change” and the cell growth ([3]; FIGS. 6A and 6B) was “did not affect cell growth; also recorded: does not affect cell growth”. The “proliferation of the stem cells” value [3, 9] was “without affecting the proliferation” and the osteogenic differentiation [4] was “reduced osteogenic differentiation”.
For “FGF-2: FGF-2 (basic fibroblast growth factor, bFGF)”, the “number of muscle stem cells” value [5] was “significantly more muscle stem cells”, the “response of human skMSC to growth factor” value [5] was “dose-dependent response” and the “reactive oxygen species (ROS)” value [6] was “increase in some muscle stem cells”.
IGF-1: Insulin-like growth factor 1 was tested, and the “nondividing cells (BrdU [−])” value [7] was “significantly fewer nondividing cells”, the “number of muscle stem cells” value [5] was “significantly more muscle stem cells” and the “response of human skMSC to growth factor” value [5] was “dose-dependent response”.
With “carboxyfluorescein diacetate succinimidyl ester [CFSE]” the “growth rates after CFSE treatment” value [8] was “does not affect growth rates”.
